Measured values from ChEMBL document CHEMBL1140833, “Potent heteroarylpiperidine and carboxyphenylpiperidine 1-alkyl-cyclopentane carboxamide CCR2 antagonists” (Bioorg Med Chem Lett, 2008).

Key:
[1] = biological target: C-C chemokine receptor type 2 (Homo sapiens, UniProt P41597); test: Displacement of [125I]MCP1 from CCR2 receptor in human monocytes; type: cell-based
[2] = biological target: Voltage-gated inwardly rectifying potassium channel KCNH2 (Homo sapiens, UniProt Q12809); test: Displacement of [[…]]MK499 from human ERG expressed in HEK cells; type: cell-based, HEK293
Sequence of Voltage-gated inwardly rectifying potassium channel KCNH2 (Q12809 whole entry): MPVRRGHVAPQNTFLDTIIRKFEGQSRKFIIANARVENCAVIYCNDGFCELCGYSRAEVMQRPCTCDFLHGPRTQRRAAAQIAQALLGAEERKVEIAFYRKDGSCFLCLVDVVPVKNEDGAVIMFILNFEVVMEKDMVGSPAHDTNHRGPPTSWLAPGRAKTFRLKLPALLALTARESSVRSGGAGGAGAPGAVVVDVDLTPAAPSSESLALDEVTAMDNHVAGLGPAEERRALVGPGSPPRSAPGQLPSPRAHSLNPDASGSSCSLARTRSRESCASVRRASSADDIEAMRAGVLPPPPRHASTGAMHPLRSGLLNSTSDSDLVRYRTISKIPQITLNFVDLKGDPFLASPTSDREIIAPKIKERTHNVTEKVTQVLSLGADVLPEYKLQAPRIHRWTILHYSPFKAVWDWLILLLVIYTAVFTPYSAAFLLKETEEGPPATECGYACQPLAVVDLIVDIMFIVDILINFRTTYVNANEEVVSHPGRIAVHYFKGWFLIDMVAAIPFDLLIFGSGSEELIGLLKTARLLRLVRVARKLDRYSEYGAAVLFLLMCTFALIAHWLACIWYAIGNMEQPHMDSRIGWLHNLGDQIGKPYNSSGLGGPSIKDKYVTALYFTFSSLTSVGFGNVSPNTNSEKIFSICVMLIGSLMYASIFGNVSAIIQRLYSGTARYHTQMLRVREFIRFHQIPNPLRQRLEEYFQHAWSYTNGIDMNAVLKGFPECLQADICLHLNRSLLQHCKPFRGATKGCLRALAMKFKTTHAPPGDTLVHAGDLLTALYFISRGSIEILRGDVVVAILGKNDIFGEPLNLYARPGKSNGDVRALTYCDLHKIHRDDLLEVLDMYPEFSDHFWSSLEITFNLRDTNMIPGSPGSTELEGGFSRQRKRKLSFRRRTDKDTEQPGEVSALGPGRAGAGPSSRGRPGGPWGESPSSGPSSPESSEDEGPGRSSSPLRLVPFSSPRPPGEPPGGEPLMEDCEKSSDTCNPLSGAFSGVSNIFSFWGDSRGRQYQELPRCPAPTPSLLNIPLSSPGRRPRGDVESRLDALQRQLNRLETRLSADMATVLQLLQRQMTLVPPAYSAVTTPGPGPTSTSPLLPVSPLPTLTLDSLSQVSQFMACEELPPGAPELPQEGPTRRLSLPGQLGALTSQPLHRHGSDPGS

[3] = Selectivity for human CCR2 over IKr
[4] = biological target: C-C chemokine receptor type 5 (Homo sapiens) (UniProt P51681); test: Inhibition of CCR5 at 1 uM; design: scale not given: the % may be the effect or the level left
Sequence of C-C chemokine receptor type 5 (Homo sapiens) (P51681 whole entry, looked up): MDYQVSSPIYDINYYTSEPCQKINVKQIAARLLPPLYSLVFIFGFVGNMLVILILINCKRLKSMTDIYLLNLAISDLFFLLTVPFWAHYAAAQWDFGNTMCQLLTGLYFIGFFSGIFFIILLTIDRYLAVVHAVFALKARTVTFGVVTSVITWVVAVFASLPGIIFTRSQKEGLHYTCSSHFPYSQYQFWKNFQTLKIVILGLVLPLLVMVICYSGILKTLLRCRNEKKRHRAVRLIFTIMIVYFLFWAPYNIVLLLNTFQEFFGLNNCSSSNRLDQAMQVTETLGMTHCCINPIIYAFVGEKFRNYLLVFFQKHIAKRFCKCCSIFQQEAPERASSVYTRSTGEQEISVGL

[5] = Clearance in rat at 3 mg/kg, po; type: ADME, organism-based; design: dose 3 mg/kg, route oral; settings: in vivo
[6] = Oral bioavailability in rat at 3 mg/kg; type: ADME, organism-based; settings: in vivo
[7] = Half life in rat at 3 mg/kg, po; type: ADME, organism-based; design: dose 3 mg/kg, route oral; settings: in vivo

Sequence of C-C chemokine receptor type 2 (P41597 whole entry): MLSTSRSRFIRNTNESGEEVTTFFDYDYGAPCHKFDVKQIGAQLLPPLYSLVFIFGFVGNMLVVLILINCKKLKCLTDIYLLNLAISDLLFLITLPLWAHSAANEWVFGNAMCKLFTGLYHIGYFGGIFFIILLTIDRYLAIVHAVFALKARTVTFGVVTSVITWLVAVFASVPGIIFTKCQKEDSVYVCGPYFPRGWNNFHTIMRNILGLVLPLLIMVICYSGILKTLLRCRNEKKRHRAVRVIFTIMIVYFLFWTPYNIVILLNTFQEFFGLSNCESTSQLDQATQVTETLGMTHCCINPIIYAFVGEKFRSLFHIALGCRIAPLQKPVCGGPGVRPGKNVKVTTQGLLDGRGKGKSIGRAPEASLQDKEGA

Structure (SMILES) | IC50 [1] [nM] | IC50 [2] [nM] | IKr IC50/CCR2 IC50 ratio [3] | further results
CC(C)[C@]1(C(=O)NCc2cc(C(F)(F)F)cc(C(F)(F)F)c2)CC[C@@H](N2CCC(c3cccc(F)c3)CC2)C1 (single isomer, unassigned) | 4 | – | – | –
CC(C)[C@]1(C(=O)NCc2cc(C(F)(F)F)cc(C(F)(F)F)c2)CC[C@@H](N2CCC(c3ccc(F)cc3)CC2)C1 | 3 | 16 | 5 | Activity [4]: 69%
CC(C)[C@]1(C(=O)NCc2cc(C(F)(F)F)cc(C(F)(F)F)c2)CC[C@@H](N2CCC(c3ccncn3)CC2)C1 (single isomer, unassigned) | 44 | 130 | 3 | –
CC(C)(O)[C@]1(C(=O)NCc2cc(C(F)(F)F)cc(C(F)(F)F)c2)CC[C@@H](N2CCC(c3ccc(F)cc3)CC2)C1 | 1.3 | 54 | 42 | Activity [4]: 69%
COc1cccc(C2CCN([C@@H]3CC[C@@](C(=O)NCc4cc(C(F)(F)F)cc(C(F)(F)F)c4)(C(C)C)C3)CC2)c1 (single isomer, unassigned) | 6 | 217 | 36 | –
CC(C)(O)[C@]1(C(=O)NCc2cc(C(F)(F)F)cc(C(F)(F)F)c2)CC[C@@H](N2CCC(c3cncnc3)CC2)C1 | 6 | – | – | Activity [4]: 3%
CC(C)[C@]1(C(=O)NCc2cc(C(F)(F)F)cc(C(F)(F)F)c2)CC[C@@H](N2CCC(c3ncccn3)CC2)C1 (single isomer, unassigned) | 144 | – | – | –
CC(C)[C@]1(C(=O)NCc2cc(C(F)(F)F)cc(C(F)(F)F)c2)CC[C@@H](N2CCC(c3ccc(Cl)nn3)CC2)C1 (single isomer, unassigned) | 165 | – | – | –
CC(C)[C@]1(C(=O)NCc2cc(C(F)(F)F)cc(C(F)(F)F)c2)CC[C@@H](N2CCC(c3cccc(O)c3)CC2)C1 (single isomer, unassigned) | 6 | 67 | 11 | –
CC(C)[C@]1(C(=O)NCc2cc(C(F)(F)F)cc(C(F)(F)F)c2)CC[C@@H](N2CCC(c3cccc(C(=O)O)c3)CC2)C1 | 62 | 2790 | 45 | –
CC(C)[C@]1(C(=O)NCc2cc(C(F)(F)F)cc(C(F)(F)F)c2)CC[C@@H](N2CCC(c3cccc(C(=O)O)c3)CC2)C1 (single isomer, unassigned) | 41 | 600 | 15 | –
CC(C)[C@]1(C(=O)NCc2cc(C(F)(F)F)cc(C(F)(F)F)c2)CC[C@@H](N2CCC(c3cccnc3)CC2)C1 (relative stereo) | 6 | – | – | –
CC(C)[C@]1(C(=O)NCc2cc(C(F)(F)F)cc(C(F)(F)F)c2)CC[C@@H](N2CCC(c3cncnc3)CC2)C1 [listing 1 of 2 here] | – | – | – | Activity [4]: 3%
CC(C)[C@]1(C(=O)NCc2cc(C(F)(F)F)cc(C(F)(F)F)c2)CC[C@@H](N2CCC(c3cncnc3)CC2)C1 (relative stereo) | 12 | – | – | CL/F [5]: 7 mL/min/kg; bioavailability [6]: 33%; half-life [7]: 3.8 h
CC(C)[C@]1(C(=O)NCc2cc(C(F)(F)F)cc(C(F)(F)F)c2)CC[C@@H](N2CCC(c3cccnn3)CC2)C1 (single isomer, unassigned) | 50 | – | – | –
CC(C)[C@]1(C(=O)NCc2cc(C(F)(F)F)cc(C(F)(F)F)c2)CC[C@@H](N2CCC(c3cncnc3)CC2)C1 [listing 2 of 2 here] | 5 | – | – | –
CC(C)[C@]1(C(=O)NCc2cc(C(F)(F)F)cc(C(F)(F)F)c2)CC[C@@H](N2CCC(c3ccnnc3)CC2)C1 (single isomer, unassigned) | 64 | – | – | –
